The source of these data is paper PMC6797481, “Identification of an allosteric binding site on the human glycine transporter, GlyT2, for bioactive lipid analgesics” (eLife, 2019).

The EC50 is the concentration at which the effect is half-maximal.

For one test, the target named is GlyT2 T634A mutant (Homo sapiens, UniProt Q9Y345, T634A). The note with it: read-out: Glycine EC50; glycine transport, GlyT2 T634A (vestibule allosteric site). As for the experimental part: (§1) Human GlyT1b or GlyT2a (herein referred to as GlyT1 and GlyT2) cDNA were sub-cloned into the plasmid oocyte transcription vector (pOTV). Site-directed mutagenesis was performed using traditional PCR techniques, and sequences confirmed by the Australian Genome Research Facility (Sydney, Australia). WT and mutant plasmid DNA were linearised with SpeI (New England Biolabs (Genesearch) Arundel, Australia) and RNA transcribed by T7 RNA polymerase using the mMessagemMachine kit (Ambion, TX, USA).
(§2) Oocytes were extracted from female Xenopus laevis frogs and detached from follicle cell containing lobes by digestion with 2 mg/mL collagenase A (Boehringer, Mannheim, Germany). Defoliculated stage V-VI oocytes were injected with 4.6 ng of cRNA encoding WT or mutant transporter (Drummond Nanoinject, Drummond Scientific Co., Broomall, PA, USA). Surgical proceedures have been approved by the University of Sydney Animal Ethics Committee (protocol 2016/970). The oocytes were stored at 16–18°C for 2–5 days in ND96 solution (96 mM NaCl, 2 mM KCL, 1 mM MgCl2, 1.8 mM CaCl2, 5 mM HEPES, pH 7.55), supplemented with 2.5 mM sodium pyruvate, 0.5 mM theophylline, 50 µg/mL gentamicin and […] tetracycline.
(§3) 2–5 days following injection, glycine transport currents were measured at −60 mV using Geneclamp 500 amplifier (Axon Instruments, Foster City, CA, USA) with a Powerlab 2/20 chart recorder (ADInstruments, Sydney, Australia) and chart software (ADInstruments). All data were subsequently analysed using GraphPad Prism 7.02 (GraphPad Software, San Diego, CA).
(§4) The function of each mutant transporter was tested by measuring glycine concentration dependent transport currents in ND96 (96 mM Na^+) to drive transport. EC50 values were determined using the modified Michaelis-Menten equation:(1) I=([GIy].Imax)/EC50+[GIy] where I is current (nA), [Gly] is the concentration of glycine, Imax is the current generated by a maximal concentration of glycine (300 µM) and EC50 is the concentration of glycine that generates a half maximal current. Values are presented as mean ± SEM obtained fromn ≥3 cells from at least two batches of oocytes. To determine if mutations affected glycine transport, one way ANOVA tests were employed, with a Dunnett’s post-hoc test used for comparison with WT GlyT2. For L425I comparison with WT GlyT1 a two-tailed t-test was used. Statistical significance were represented as p<0.05 *, p<0.01 **, p<0.001 *** etc. in the following figures.
(§5) Glycine concentration response curves were performed on WT and mutant transporters to generate EC50 values. Transport currents were measured in the presence of increasing concentrations of glycine (1 – 300 μM).

The next test deals with GlyT2 T472A mutant (Homo sapiens, UniProt Q9Y345, T472A). Particulars: glycine transport, GlyT2 T472A (vestibule allosteric site). As for the experimental part: as §1, §2, §3, §4, §5
Another test has as its system GlyT2 F569A/V/L mutants. Particulars: glycine transport, GlyT2 F569A/V/L (TM8). As for the experimental part: as §1, §2, §3, §4, §5
For the next test, the target named is GlyT2 S696A mutant (Homo sapiens, UniProt Q9Y345, S696A). The note with it: read-out: Glycine EC50; glycine transport, GlyT2 S696A (vestibule allosteric site). The protocol:
as §1, §2, §3, §4, §5

The next test addresses GlyT2 Q473A mutant (Homo sapiens, UniProt Q9Y345, Q473A). Particulars: read-out: Glycine EC50; glycine transport, GlyT2 Q473A (vestibule allosteric site). The protocol:
as §1, §2, §3, §4, §5

The target in another test is GlyT2 P429A mutant (Homo sapiens, UniProt Q9Y345, P429A). The note with it: glycine transport, GlyT2 P429A (TM5). The protocol:
as §1, §2, §3, §4, §5

In the next test the target is GlyT2 D469A mutant (Homo sapiens, UniProt Q9Y345, D469A). Particulars: read-out: Glycine EC50; glycine transport, GlyT2 D469A (vestibule allosteric site). The protocol: as §1, §2, §3, §4, §5
The next test concerns the target GlyT2 E701A mutant (Homo sapiens, UniProt Q9Y345, E701A). The note with it: read-out: Glycine EC50; glycine transport, GlyT2 E701A (vestibule allosteric site). As for the experimental part: as §1, §2, §3, §4, §5
The next test concerns the target T1, GlyT2 WT (Homo sapiens, UniProt Q9Y345).
T1 sequence (Q9Y345 1-797): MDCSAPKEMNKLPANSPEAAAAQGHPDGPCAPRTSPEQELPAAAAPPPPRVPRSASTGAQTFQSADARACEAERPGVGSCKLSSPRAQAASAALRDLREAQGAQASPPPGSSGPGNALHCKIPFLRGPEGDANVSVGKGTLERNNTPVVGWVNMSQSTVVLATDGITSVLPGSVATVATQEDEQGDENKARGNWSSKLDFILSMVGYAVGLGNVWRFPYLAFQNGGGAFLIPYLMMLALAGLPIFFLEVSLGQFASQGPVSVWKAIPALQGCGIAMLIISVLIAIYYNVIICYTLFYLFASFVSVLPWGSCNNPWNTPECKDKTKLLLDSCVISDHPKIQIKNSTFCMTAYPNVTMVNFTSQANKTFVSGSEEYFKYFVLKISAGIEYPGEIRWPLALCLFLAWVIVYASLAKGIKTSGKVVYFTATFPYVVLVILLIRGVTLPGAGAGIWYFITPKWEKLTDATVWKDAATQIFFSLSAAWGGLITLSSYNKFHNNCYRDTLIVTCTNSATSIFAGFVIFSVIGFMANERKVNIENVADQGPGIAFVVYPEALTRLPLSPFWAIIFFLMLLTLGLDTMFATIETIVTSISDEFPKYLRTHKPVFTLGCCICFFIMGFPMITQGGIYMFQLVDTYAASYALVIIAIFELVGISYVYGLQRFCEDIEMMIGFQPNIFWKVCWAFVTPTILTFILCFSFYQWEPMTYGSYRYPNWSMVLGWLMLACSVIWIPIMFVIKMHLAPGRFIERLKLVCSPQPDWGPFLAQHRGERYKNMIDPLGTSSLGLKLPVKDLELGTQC
The note with it: read-out: Glycine EC50, glycine transport, mean ± SEM. As for the experimental part: as §1
(§6) Oocytes were extracted from female Xenopus laevis frogs and detached from follicle cell containing lobes by digestion with 2 mg/mL collagenase A (Boehringer, Mannheim, Germany). Defoliculated stage V-VI oocytes were injected with 4.6 ng of cRNA encoding WT or mutant transporter (Drummond Nanoinject, Drummond Scientific Co., Broomall, PA, USA). Surgical proceedures have been approved by the University of Sydney Animal Ethics Committee (protocol 2016/970). […]
(§7) 2–5 days following injection, glycine transport currents were measured at −60 mV using Geneclamp 500 amplifier (Axon Instruments, Foster City, CA, USA) with a Powerlab 2/20 chart recorder (ADInstruments, Sydney, Australia) and chart software (ADInstruments). All data were subsequently analysed using GraphPad Prism 7.02 (GraphPad Software, San Diego, CA). […]

The subject of a further test is GlyT1 WT. The note with it: read-out: Glycine EC50, glycine transport. The protocol:
as §1, §6, §7

GlyT2 T634A mutant, sequence (Q9Y345 whole entry T634A): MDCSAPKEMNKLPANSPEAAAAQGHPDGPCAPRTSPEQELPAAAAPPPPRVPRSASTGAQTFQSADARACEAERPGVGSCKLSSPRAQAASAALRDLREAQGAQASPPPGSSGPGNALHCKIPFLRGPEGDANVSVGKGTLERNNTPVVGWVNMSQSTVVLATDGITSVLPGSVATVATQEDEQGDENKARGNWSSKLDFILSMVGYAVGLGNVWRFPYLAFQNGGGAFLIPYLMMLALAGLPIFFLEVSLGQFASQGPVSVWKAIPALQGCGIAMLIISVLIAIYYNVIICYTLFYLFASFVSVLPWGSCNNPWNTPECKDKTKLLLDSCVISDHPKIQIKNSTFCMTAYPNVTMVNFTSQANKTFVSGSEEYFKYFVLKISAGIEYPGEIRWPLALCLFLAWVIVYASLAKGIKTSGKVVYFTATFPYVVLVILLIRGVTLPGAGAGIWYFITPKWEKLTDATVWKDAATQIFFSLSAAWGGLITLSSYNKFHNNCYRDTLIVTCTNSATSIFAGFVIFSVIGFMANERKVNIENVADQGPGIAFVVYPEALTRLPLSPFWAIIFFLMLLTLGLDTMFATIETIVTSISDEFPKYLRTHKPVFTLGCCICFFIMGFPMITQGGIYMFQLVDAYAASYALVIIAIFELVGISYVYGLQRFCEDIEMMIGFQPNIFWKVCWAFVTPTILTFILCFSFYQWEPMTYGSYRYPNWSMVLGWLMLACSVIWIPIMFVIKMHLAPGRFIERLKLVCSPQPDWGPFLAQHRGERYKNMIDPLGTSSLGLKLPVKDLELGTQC
GlyT2 D469A mutant, sequence (Q9Y345 whole entry D469A): as the sequence (Q9Y345 whole entry T634A) above, with D469A, A634T counted along it
GlyT2 Q473A mutant, sequence (Q9Y345 whole entry Q473A): as the sequence (Q9Y345 whole entry T634A) above, with Q473A, A634T counted along it
GlyT2 P429A mutant, sequence (Q9Y345 whole entry P429A): as the sequence (Q9Y345 whole entry T634A) above, with P429A, A634T counted along it
GlyT2 E701A mutant, sequence (Q9Y345 whole entry E701A): as the sequence (Q9Y345 whole entry T634A) above, with A634T, E701A counted along it
GlyT2 S696A mutant, sequence (Q9Y345 whole entry S696A): as the sequence (Q9Y345 whole entry T634A) above, with A634T, S696A counted along it
GlyT2 T472A mutant, sequence (Q9Y345 whole entry T472A): as the sequence (Q9Y345 whole entry T634A) above, with T472A, A634T counted along it

Regarding `NCC(=O)O` [Glycine], the EC50 was determined as 28.6 ± 3.2 µM at GlyT2 T634A mutant; 25.6 ± 2.7 µM at GlyT2 S696A mutant; 498 ± 146 µM on GlyT2 Q473A mutant; 110 ± 12.8 µM at GlyT2 D469A mutant; 16.5 ± 0.87 µM on GlyT2 E701A mutant; 14.5 ± 2.6 µM on GlyT2 WT. The EC50 in the test on GlyT1 WT was found to be 14.4 ± 1.2 µM. Further, the “Glycine EC50” value at GlyT2 T472A mutant, in the test on GlyT2 F569A/V/L mutants and on GlyT2 P429A mutant was “No transport currents” each time.
